# Patent US10597388B2, “Pyridazinone herbicides” (FMC CORPORATION, priority 2014, dated 2020)
# Where two headings read alike, the source gives them in different places.
# Experiments:
# Type in all cases: in vivo
# [1] = tested on: barnyardgrass (Echinochloa crus-galli); test: Test A greenhouse herbicide test, pre- and postemergence; details: for pest or weed control at 125 g/ha / pest or weed control at 500 g/ha: Echinochloa crus-galli, 240 h
# Outline: (§1)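 Seeds in loam–sand blend received a preemergence directed soil spray; plants at 2–10 cm, one- to two-leaf stage, received postemergence sprays. Compounds in a non-phytotoxic solvent with surfactant. After about 10 d in a greenhouse, injury rated visually versus untreated controls on a 0–100 scale (100 = complete control).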
# [2] = tested on: foxtail, giant (giant foxtail, Setaria faberii); test: as above; details: for pest or weed control at 125 g/ha / pest or weed control at 500 g/ha: Setaria faberi, 240 h
# Outline: as §1
# [3] = tested on: kochia (Kochia scoparia); test: as above; details: for pest or weed control at 125 g/ha / pest or weed control at 500 g/ha: Bassia scoparia, 240 h
# Outline: as §1
# [4] = tested on: pigweed (Amaranthus retroflexus); test: as above; details: for pest or weed control at 125 g/ha / pest or weed control at 500 g/ha: Amaranthus retroflexus, 240 h
# Outline: as §1
# [5] = tested on: ragweed (common ragweed, Ambrosia elatior); test: as above; details: for pest or weed control at 125 g/ha / pest or weed control at 500 g/ha: Ambrosia artemisiifolia, 240 h
# Outline: as §1
# [6] = tested on: ryegrass, Italian (Italian ryegrass, Lolium multiflorum); test: as above; details: for pest or weed control at 125 g/ha / pest or weed control at 500 g/ha: Lolium multiflorum, 240 h
# Outline: as §1
# [7] = tested on: wheat (Triticum aestivum); test: as above; details: Postemergence
# Outline: as §1
# [8] = tested on: blackgrass (Alopecurus myosuroides); test: Test A greenhouse herbicide test, postemergence
# Outline: (§2)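 Pot-grown plants (loam soil/sand blend), 2–10 cm tall at the one- to two-leaf stage, received postemergence sprays of formulated test chemical. After about 10 d in the greenhouse, injury was rated visually against untreated controls on a 0 (no effect) to 100 (complete control) scale.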
# [9] = tested on: galium (catchweed bedstraw, Galium aparine); test: Test A greenhouse herbicide test, postemergence
# Outline: as §2
# [10] = tested on: corn (Zea mays); test: Test C greenhouse herbicide test, pre- and postemergence
# Outline: (§3)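 Pre- and postemergence greenhouse screen; values are visual control ratings, 0 meaning no effect and 100 complete kill, assigned relative to untreated plants after 13 to 15 d.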
# [11] = tested on: ryegrass, Italian (Italian ryegrass, Lolium multiflorum); test: as above
# Outline: as §3
# [12] = Postemergence, 31 g ai/ha, 0 to 100 scale (0 no effect, 100 complete control)
# [13] = Postemergence, 125 g ai/ha, scale 0 to 100, 0 is no effect, 100 is complete control
# [14] = Postemergence, 250 g ai/ha, scale 0 to 100, 0 no effect, 100 complete control, 13 to 15 d
# [15] = postemergence, 62 g ai/ha, scale 0 to 100, 0 no effect, 100 complete control
# [16] = Postemergence, 125 g ai/ha, visual rating after approx. 10 d, 0 to 100 scale (0 no effect, 100 complete control)
# [17] = Postemergence, 500 g ai/ha, 0 to 100 scale, 0 is no effect, 100 is complete control
# [18] = Preemergence, 125 g ai/ha, 0 to 100 scale where 0 is no effect and 100 is complete control
# [19] = Preemergence, 500 g ai/ha, 0 to 100 scale, 0 no effect, 100 complete control
# [20] = 500 g ai/ha, 0 to 100 scale, 0 is no effect, 100 is complete control
# [21] = 125 g ai/ha, visual rating after approx. 10 d, 0 to 100 scale (0 no effect, 100 complete control)
# [22] = Preemergence, 31 g ai/ha, scale 0 to 100, 0 is no effect, 100 is complete control
# [23] = Preemergence, 62 g ai/ha, scale 0 to 100, 0 is no effect, 100 is complete control
# [24] = Preemergence, 125 g ai/ha, scale 0 to 100, 0 is no effect, 100 is complete control
# [25] = Preemergence, 250 g ai/ha, scale 0 to 100 (0 no effect, 100 complete control)
compound,measurement,setting,value
"CC(=O)Oc1c(C)nn(C)c(=O)c1-c1c(C)oc2c(C)cc(C)cc12 [Compound 16, 5-(acetyloxy)-2,6-dimethyl-4-(2,5,7-trimethyl-3-benzofuranyl)-3(2H)-pyridazinone]",pest or weed control at 125 g/ha,"[1]; post-emergence, Postemergence, 125 g ai/ha, visual rating after approx. 10 d, 0 to 100 scale (0 no effect, 100 complete control), read-out: Plant response rating, Barnyardgrass",20%
same,pest or weed control at 500 g/ha,"[1]; post-emergence, Postemergence, 500 g ai/ha, 0 to 100 scale, 0 is no effect, 100 is complete control, read-out: Barnyardgrass plant response rating",90%
same,pest or weed control at 125 g/ha,"[1]; pre-emergence, Preemergence, 125 g ai/ha, 0 to 100 scale where 0 is no effect and 100 is complete control, read-out: Barnyardgrass plant response rating",10%
same,pest or weed control at 500 g/ha,"[1]; pre-emergence, Preemergence, 500 g ai/ha, 0 to 100 scale, 0 no effect, 100 complete control, read-out: Plant response rating, Barnyardgrass",70%
same,pest or weed control at 125 g/ha,"[2]; post-emergence, Postemergence, 125 g ai/ha, visual rating after approx. 10 d, 0 to 100 scale (0 no effect, 100 complete control), read-out: Plant response rating, Foxtail, Giant",20%
same,pest or weed control at 500 g/ha,"[2]; post-emergence, Postemergence, 500 g ai/ha, 0 to 100 scale, 0 is no effect, 100 is complete control, read-out: Foxtail, Giant plant response rating",80%
same,pest or weed control at 125 g/ha,"[2]; pre-emergence, Preemergence, 125 g ai/ha, 0 to 100 scale where 0 is no effect and 100 is complete control, read-out: Foxtail, Giant plant response rating",0%
same,pest or weed control at 500 g/ha,"[2]; pre-emergence, Preemergence, 500 g ai/ha, 0 to 100 scale, 0 no effect, 100 complete control, read-out: Plant response rating, Foxtail, Giant",30%
same,pest or weed control at 125 g/ha,"[3]; post-emergence, Postemergence, 125 g ai/ha, visual rating after approx. 10 d, 0 to 100 scale (0 no effect, 100 complete control), read-out: Plant response rating, Kochia",50%
same,pest or weed control at 500 g/ha,"[3]; post-emergence, Postemergence, 500 g ai/ha, 0 to 100 scale, 0 is no effect, 100 is complete control, read-out: Kochia plant response rating",60%
same,pest or weed control at 125 g/ha,"[3]; pre-emergence, Preemergence, 125 g ai/ha, 0 to 100 scale where 0 is no effect and 100 is complete control, read-out: Kochia plant response rating",0%
same,pest or weed control at 500 g/ha,"[3]; pre-emergence, Preemergence, 500 g ai/ha, 0 to 100 scale, 0 no effect, 100 complete control, read-out: Plant response rating, Kochia",30%
same,pest or weed control at 125 g/ha,"[4]; post-emergence, Postemergence, 125 g ai/ha, visual rating after approx. 10 d, 0 to 100 scale (0 no effect, 100 complete control), read-out: Plant response rating, Pigweed",30%
same,pest or weed control at 500 g/ha,"[4]; post-emergence, Postemergence, 500 g ai/ha, 0 to 100 scale, 0 is no effect, 100 is complete control, read-out: Pigweed plant response rating",40%
same,pest or weed control at 125 g/ha,"[4]; pre-emergence, Preemergence, 125 g ai/ha, 0 to 100 scale where 0 is no effect and 100 is complete control, read-out: Pigweed plant response rating",0%
same,pest or weed control at 500 g/ha,"[4]; pre-emergence, Preemergence, 500 g ai/ha, 0 to 100 scale, 0 no effect, 100 complete control, read-out: Plant response rating, Pigweed",70%
same,pest or weed control at 125 g/ha,"[5]; post-emergence, Postemergence, 125 g ai/ha, visual rating after approx. 10 d, 0 to 100 scale (0 no effect, 100 complete control), read-out: Plant response rating, Ragweed",30%
same,pest or weed control at 500 g/ha,"[5]; post-emergence, Postemergence, 500 g ai/ha, 0 to 100 scale, 0 is no effect, 100 is complete control, read-out: Ragweed plant response rating",70%
same,pest or weed control at 125 g/ha,"[5]; pre-emergence, Preemergence, 125 g ai/ha, 0 to 100 scale where 0 is no effect and 100 is complete control, read-out: Ragweed plant response rating",0%
same,pest or weed control at 500 g/ha,"[5]; pre-emergence, Preemergence, 500 g ai/ha, 0 to 100 scale, 0 no effect, 100 complete control, read-out: Plant response rating, Ragweed",0%
same,pest or weed control at 125 g/ha,"[6]; post-emergence, Postemergence, 125 g ai/ha, visual rating after approx. 10 d, 0 to 100 scale (0 no effect, 100 complete control), read-out: Plant response rating, Ryegrass, Italian",50%
same,pest or weed control at 500 g/ha,"[6]; post-emergence, Postemergence, 500 g ai/ha, 0 to 100 scale, 0 is no effect, 100 is complete control, read-out: Ryegrass, Italian plant response rating",80%
same,pest or weed control at 125 g/ha,"[6]; pre-emergence, Preemergence, 125 g ai/ha, 0 to 100 scale where 0 is no effect and 100 is complete control, read-out: Ryegrass, Italian plant response rating",30%
same,pest or weed control at 500 g/ha,"[6]; pre-emergence, Preemergence, 500 g ai/ha, 0 to 100 scale, 0 no effect, 100 complete control, read-out: Plant response rating, Ryegrass, Italian",80%
same,plant injury at 125 g/ha,"[7]; Triticum aestivum, post-emergence, 240 h, 125 g ai/ha, visual rating after approx. 10 d, 0 to 100 scale (0 no effect, 100 complete control), read-out: Plant response rating, Wheat",0%
same,plant injury at 500 g/ha,"[7]; Triticum aestivum, post-emergence, 240 h, 500 g ai/ha, 0 to 100 scale, 0 is no effect, 100 is complete control, read-out: Wheat plant response rating",0%
same,pest or weed control at 125 g/ha,"[8]; Alopecurus myosuroides, post-emergence, 240 h, 125 g ai/ha, visual rating after approx. 10 d, 0 to 100 scale (0 no effect, 100 complete control), read-out: Plant response rating, Blackgrass",10%
same,pest or weed control at 500 g/ha,"[8]; Alopecurus myosuroides, post-emergence, 240 h, 500 g ai/ha, 0 to 100 scale, 0 is no effect, 100 is complete control, read-out: Blackgrass plant response rating",30%
same,pest or weed control at 125 g/ha,"[9]; Galium, post-emergence, 240 h, 125 g ai/ha, visual rating after approx. 10 d, 0 to 100 scale (0 no effect, 100 complete control), read-out: Plant response rating, Galium",90%
same,pest or weed control at 500 g/ha,"[9]; Galium, post-emergence, 240 h, 500 g ai/ha, 0 to 100 scale, 0 is no effect, 100 is complete control, read-out: Galium plant response rating",100%
same,Corn plant response rating,[10]; [12],0
same,"Plant response rating, Corn",[10]; [13],0
same,"Plant response rating, Corn",[10]; [14],0
same,Corn plant response rating,[10]; [15],0
same,"Ryegrass, Italian plant response rating",[11]; [12],10
same,"Plant response rating, Ryegrass, Italian",[11]; [13],60
same,"Plant response rating, Ryegrass, Italian",[11]; [14],70
same,"Ryegrass, Italian plant response rating",[11]; [15],50
CC(=O)Oc1c(C)nn(C)c(=O)c1-c1c(C)sc2ccc(C)cc12 [Compound 25],"Plant response rating, Barnyardgrass",[1]; [16],20
same,Barnyardgrass plant response rating,[1]; [17],90
same,Barnyardgrass plant response rating,[1]; [18],30
same,"Plant response rating, Barnyardgrass",[1]; [19],90
same,"Plant response rating, Foxtail, Giant",[2]; [16],90
same,"Foxtail, Giant plant response rating",[2]; [17],90
same,"Foxtail, Giant plant response rating",[2]; [18],90
same,"Plant response rating, Foxtail, Giant",[2]; [19],90
same,"Plant response rating, Kochia",[3]; [16],100
same,Kochia plant response rating,[3]; [17],100
same,Kochia plant response rating,[3]; [18],90
same,"Plant response rating, Kochia",[3]; [19],100
same,"Plant response rating, Pigweed",[4]; [16],90
same,Pigweed plant response rating,[4]; [17],100
same,Pigweed plant response rating,[4]; [18],100
same,"Plant response rating, Pigweed",[4]; [19],100
same,"Plant response rating, Ragweed",[5]; [16],100
same,Ragweed plant response rating,[5]; [17],100
same,Ragweed plant response rating,[5]; [18],90
same,"Plant response rating, Ragweed",[5]; [19],100
same,"Plant response rating, Ryegrass, Italian","[6]; Postemergence, 125 g ai/ha, 0 to 100 scale where 0 is no effect and 100 is complete control",100
same,"Ryegrass, Italian plant response rating",[6]; [17],100
same,"Ryegrass, Italian plant response rating",[6]; [18],100
same,"Plant response rating, Ryegrass, Italian",[6]; [19],100
same,"Plant response rating, Wheat","[7]; 125 g ai/ha, 0 to 100 scale where 0 is no effect and 100 is complete control",0
same,Wheat plant response rating,[7]; [20],0
same,"Plant response rating, Blackgrass",[8]; [21],60
same,Blackgrass plant response rating,[8]; [20],90
same,"Plant response rating, Galium",[9]; [21],100
same,Galium plant response rating,[9]; [20],100
same,Corn plant response rating,[10]; [12],5
same,"Plant response rating, Corn",[10]; [13],5
same,"Plant response rating, Corn",[10]; [14],10
same,"Plant response rating, Corn",[10]; [22],0
same,"Plant response rating, Corn",[10]; [23],0
same,"Plant response rating, Corn",[10]; [24],0
same,Corn plant response rating,[10]; [25],10
same,Corn plant response rating,[10]; [15],5
same,"Ryegrass, Italian plant response rating",[11]; [12],70
same,"Plant response rating, Ryegrass, Italian",[11]; [13],90
same,"Plant response rating, Ryegrass, Italian",[11]; [14],95
same,"Plant response rating, Ryegrass, Italian",[11]; [22],90
same,"Plant response rating, Ryegrass, Italian",[11]; [23],95
same,"Plant response rating, Ryegrass, Italian",[11]; [24],95
same,"Ryegrass, Italian plant response rating",[11]; [25],95
same,"Ryegrass, Italian plant response rating",[11]; [15],85
